Molecules are shown by their SMILES.

Test [1] concerns Mll3/4 KO mESCs. Put plainly: CellTiter-Glo luminescent cell viability assay in WT and Mll3/4 KO mESCs. It counts as cell-based, mouse. The following applies: 48 hours. As for the experimental part: (§1) FIG. 3. […] (A) WT and Mll3/4 KO cells were treated with 0-2.5 μM lometrexol (LTX)−/+50 hypoxanthine (HPX) for 48 hours. CellTiter-Glo® luminescent cell viability assay was performed to determine the percentage of inhibition under these conditions. (B) WT and KO cells were treated with 0.3 μM LTX−/+50 μM HPX for 48 hours, and cells were harvested for RNA-seq. Differential gene expression analyses were performed with indicated comparisons. (C) Principal component analysis of RNA-seq in (B). (D) Hierarchical clustering heatmap showing differentially expressed genes in KO cells in comparison with WT cells.
(§2) FIG. 10. Mll3/4 KO mESCs are more sensitive to purine synthesis inhibition. (A-B) WT and Mll3/4 KO cells were treated with 0-2.5 μM lometrexol (LTX) (A) or 0-5 methotrexate (MTX) (B) for 48 hours. CellTiter-Glo® luminescent cell viability assay was performed to determine the percentage of inhibition under these conditions with three different Mll3/4 KO clones included. (C) WT and Mll3/4 KO cells were treated with 0-40 μM SHIINI for 48 hours. MTT cell viability assay was performed to determine the percentage of inhibition under these conditions with three different Mll3/4 KO clones included.
Background: Cellular ATP, detected with luciferase, serves as a proxy for viable cell number.

The test system of test [2] is WT and Mll3/4 KO mESCs. The test can be described thus: RNA-seq of WT and Mll3/4 KO mESCs treated with LTX -/+ HPX. It counts as cell-based, mouse. The following applies: 48 hours. As for the experimental part:
as §1, §2
Gene count tables were constructed using HTseq (56) with Ensembl gene annotations and used as input for edgeR 3.0.8 (57). Genes with Benjamini-Hochburg adjusted p-values less than were differentially expressed. Batch effects were removed using ComB at-seq on the raw read counts (58). Pathway analysis was performed with Metascape (59).

In test [3] the test system is HT55 (MLL4 WT) xenograft. The test can be described thus: HT55 subcutaneous xenograft in nude mice. In kind it is in vivo. As for the experimental part: FIG. 20. Lometrexol application in MLL4 mutant tumors in the xenograft mouse models. (A-D) Tumor development after inoculation of 4×10^6 of HT55 cells into the nude mice. Mice with HT55 subcutaneous (sc) tumor were either treated with vehicle (DMSO, n=9) or LTX (15 mg/kg, n=9) daily for 7 days. (A) Growth plots for sc tumors in each treatment group were shown. Tumor volumes (mm3) show mean and upper SD. (B) Dot plot representation of sc tumor volume in mice at day 18 post-tumor cell injection. […] (C) Photographs of nude mice (upper) and sc tumor taken from these mice (lower) in which HT55 cells were inoculated into the right flank. (D) Animal survival at the indicated days after inoculation. Log-rank test was used for comparisons between DMSO and LTX treatment. (E-H) Tumor development after inoculation of 4×10^6 of HCT116 cells into the nude mice. […]
Six-week-old female athymic mice (nu/nu genotype, BALB/c background) were purchased from Envigo (Indianapolis, IN, USA) and housed under aseptic conditions. […] The tumor sizes were measured on alternate days and the mice were euthanized when the tumor size reached 1000 mm^3. […]
For in vivo study, the Kaplan-Meier estimator and Prism software were used to generate and analyze survival plots. Differences between survival plots were calculated using a log-rank test. […]

As for `Nc1nc2c(c(=O)[nH]1)C[C@@H](CCc1ccc(C(=O)N[C@@H](CCC(=O)O)C(=O)O)cc1)CN2` [lometrexol, (2S)-2-[[4-[2-[(6R)-2-amino-4-oxo-5,6,7,8-tetrahydro-3H-pyrido[2,3-d]pyrimidin-6-yl]ethyl]benzoyl]amino]pentanedioic acid], in test [1] (LTX 0-2.5 μM, MTX 0-5, three Mll3/4 KO clones), the “sensitivity of Mll3/4 KO cells compared with WT cells (percentage of inhibition of viability)” value is “elevated sensitivity to LTX in Mll3/4 KO cells”. For the same compound, the “rescue of cell growth and/or viability inhibition by hypoxanthine” value in test [1] (LTX 0-2.5 μM + 50 hypoxanthine (HPX)) is recorded as “completely rescued by HPX”. Further, the “gene expression change in WT and Mll3/4 KO cells” value in test [2] (0.3 μM LTX or 50 μM HPX alone, LTX effect almost completely rescued by HPX) was “induced significant gene expression change”. In test [2] (0.3 μM LTX), the “genes commonly downregulated in WT and KO cells” value was determined as 1063 genes; the “genes commonly upregulated in WT and KO cells” value came out at 1195 genes. Besides, the “sc tumor volume at day 18 post-tumor cell injection, DMSO vs LTX (unpaired t-test)” value in test [3] (LTX 15 mg/kg daily for 7 days) is recorded as “not statistically significant”. Moreover, the tumor growth result in test [3] (LTX 15 mg/kg daily for 7 days vs DMSO) is “almost completely resistant to LTX”.
